Reference: US8269015B2, “4-azetidinyl-1-heteroaryl-cyclohexane antagonists of CCR2” (Janssen Pharmaceutica N.V., priority 2009, dated 2012)
Counter-ions that a name gives are not always drawn.

Target: T1, CCR2 (Homo sapiens, UniProt P41597)
T1 construct: host or cells: THP-1 (human monocytic cell line)
T1 sequence (P41597 1-360 isoform P41597-2): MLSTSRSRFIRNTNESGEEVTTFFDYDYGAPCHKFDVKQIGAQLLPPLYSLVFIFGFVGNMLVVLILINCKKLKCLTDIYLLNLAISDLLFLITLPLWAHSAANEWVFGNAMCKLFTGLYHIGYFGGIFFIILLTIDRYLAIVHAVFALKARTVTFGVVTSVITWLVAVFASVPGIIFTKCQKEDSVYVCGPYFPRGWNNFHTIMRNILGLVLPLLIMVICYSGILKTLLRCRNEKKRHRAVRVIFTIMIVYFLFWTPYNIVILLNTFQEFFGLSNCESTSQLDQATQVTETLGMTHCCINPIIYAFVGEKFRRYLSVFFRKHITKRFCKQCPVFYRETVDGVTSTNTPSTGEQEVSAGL
Assay: MCP-1 Receptor Binding Assay in THP-1 Cells (125I labeled MCP-1)
Details: 0.5 nM 125I labeled MCP-1, 2 hours at 30° C., read-out: Inhibition of MCP-1 Binding IC50, CCR2 Binding
Experimental: Compounds of the invention were subjected to various representative biological tests. […] MCP-1 Receptor Binding Assay in THP-1 Cells
Human monocytic cell line THP-1 cells were obtained from American Type Culture Collection (Manassas, Va., USA). […] The cell density was maintained […].
1 μM cold MCP-1 was used for nonspecific binding.

Row | SMILES | IC50
1 | O=C(CNC(=O)c1cccc(C(F)(F)F)c1)NC1CN(C2CCC(c3noc(N4CCCC4)n3)CC2)C1 (mixture of isomers) [Example 59, N-({1-[4-(5-Pyrrolidin-1-yl-[1,2,4]oxadiazol-3-yl)-cyclohexyl]-azetidin-3-ylcarbamoyl}-methyl)-3-trifluoromethyl-benzamide] | 400 nM
2 | Cc1cc(=O)[nH]c(C2CCC(N3CC(NC(=O)CNC(=O)c4cccc(C(F)(F)F)c4)C3)CC2)n1 (mixture of isomers) [Example 60, N-({1-[4-(4-Methyl-6-oxo-1,6-dihydro-pyrimidin-2-yl)-cyclohexyl]-azetidin-3-ylcarbamoyl}-methyl)-3-trifluoromethyl-benzamide] | 3900 nM
3 | O=C(CNC(=O)c1cccc(C(F)(F)F)c1)NC1CN(C2CCC(c3nc4c(c(=O)[nH]3)CCCC4)CC2)C1 (mixture of isomers) [Example 61, N-({1-[4-(4-Oxo-3,4,5,6,7,8-hexahydro-quinazolin-2-yl)-cyclohexyl]-azetidin-3-ylcarbamoyl}-methyl)-3-trifluoromethyl-benzamide] | 4000 nM
4 | O=C(CNC(=O)c1cccc(C(F)(F)F)c1)NC1CN(C2CCC(c3nsc(Cl)n3)CC2)C1 (mixture of isomers) [Example 62, N-({1-[4-(5-Chloro-[1,2,4]thiadiazol-3-yl)-cyclohexyl]-azetidin-3-ylcarbamoyl}-methyl)-3-trifluoromethyl-benzamide] | 390 nM
5 | O=C(CNC(=O)c1cccc(C(F)(F)F)c1)NC1CN(C2CCC(c3nc4n(n3)CCCC4)CC2)C1 (mixture of isomers) [Example 63, N-({1-[4-(5,6,7,8-Tetrahydro-[1,2,4]-triazolo[1,5-a]pyridin-2-yl)-cyclohexyl]-azetidin-3-ylcarbamoyl}-methyl)-3-trifluoromethyl-benzamide] | 1500 nM
6 | O=C(CNC(=O)c1cccc(C(F)(F)F)c1)NC1CN(C2CCC(c3ccc(=O)[nH]c3)CC2)C1 (single isomer, unassigned) [Example 37a, N-({1-[4-(6-Oxo-1,6-dihydro-pyridin-3-yl)-cyclohexyl]-azetidin-3-ylcarbamoyl}-methyl)-3-trifluoromethyl-benzamide] | 170 nM
7 | Cn1cc(C2CCC(N3CC(NC(=O)CNC(=O)c4cccc(C(F)(F)F)c4)C3)CC2)ccc1=O (single isomer, unassigned) [Example 38a, N-({1-[4-(1-Methyl-6-oxo-1,6-dihydro-pyridin-3-yl)-cyclohexyl]-azetidin-3-ylcarbamoyl}-methyl)-3-trifluoromethyl-benzamide] | 46 nM
8 | CC(C)n1cc(C2CCC(N3CC(NC(=O)CNC(=O)c4cccc(C(F)(F)F)c4)C3)CC2)ccc1=O (single isomer, unassigned) [Example 40a, N-({1-[4-(1-Isopropyl-6-oxo-1,6-dihydro-pyridin-3-yl)-cyclohexyl]-azetidin-3-ylcarbamoyl}-methyl)-3-trifluoromethyl-benzamide] | 330 nM
9 | O=C(CNC(=O)c1cccc(C(F)(F)F)c1)NC1CN(C2CCC(c3ccc(=O)n(CC(F)(F)F)c3)CC2)C1 (single isomer, unassigned) [Example 42a, N-[(1-{4-[6-Oxo-1-(2,2,2-trifluoro-ethyl)-1,6-dihydro-pyridin-3-yl]-cyclohexyl}-azetidin-3-ylcarbamoyl)-methyl]-3-trifluoromethyl-benzamide] | 150 nM
10 | Cc1cc(C2CCC(N3CC(NC(=O)CNC(=O)c4cccc(C(F)(F)F)c4)C3)CC2)c[nH]c1=O (single isomer, unassigned) [Example 44a, N-({1-[4-(5-Methyl-6-oxo-1,6-dihydro-pyridin-3-yl)-cyclohexyl]-azetidin-3-ylcarbamoyl}-methyl)-3-trifluoromethyl-benzamide] | 250 nM
11 | Cc1cc(C2CCC(N3CC(NC(=O)CNC(=O)c4cccc(C(F)(F)F)c4)C3)CC2)cn(C)c1=O (single isomer, unassigned) [Example 45a, N-({1-[4-(1,5-Dimethyl-6-oxo-1,6-dihydro-pyridin-3-yl)-cyclohexyl]-azetidin-3-ylcarbamoyl}-methyl)-3-trifluoromethyl-benzamide] | 61 nM
12 | Cn1ccc(C2CCC(N3CC(NC(=O)CNC(=O)c4cccc(C(F)(F)F)c4)C3)CC2)cc1=O (single isomer, unassigned) [Example 46a, N-({1-[4-(1-Methyl-2-oxo-1,2-dihydro-pyridin-4-yl)-cyclohexyl]-azetidin-3-ylcarbamoyl}-methyl)-3-trifluoromethyl-benzamide] | 550 nM
13 | COC(=O)Nc1ncc(C2CCC(N3CC(NC(=O)CNC(=O)c4cccc(C(F)(F)F)c4)C3)CC2)s1 (single isomer, unassigned) [Example 51a, [5-(4-{3-[2-(3-Trifluoromethyl-benzoylamino)-acetylamino]-azetidin-1-yl}-cyclohexyl)-thiazol-2-yl]-carbamic acid methyl ester] | 340 nM
14 | O=C(CNC(=O)c1cccc(C(F)(F)F)c1)NC1CN(C2CCC(c3cnc(C(=O)O)s3)CC2)C1 (single isomer, unassigned) [Example 52a, 5-(4-{3-[2-(3-Trifluoromethyl-benzoylamino)-acetylamino]-azetidin-1-yl}-cyclohexyl)-thiazole-2-carboxylic acid] | 2800 nM
15 | COc1ccc(C2(F)CCC(N3CC(NC(=O)CNC(=O)c4cccc(C(F)(F)F)c4)C3)CC2)cn1 (single isomer, unassigned) [Example 64a, N-({1-[4-Fluoro-4-(6-methoxy-pyridin-3-yl)-cyclohexyl]-azetidin-3-ylcarbamoyl}-methyl)-3-trifluoromethyl-benzamide] | 110 nM
16 | O=C(CNC(=O)c1cccc(C(F)(F)F)c1)NC1CN(C2CCC(c3cncc(O)c3)CC2)C1 (stereo not drawn) [Example 5, N-({1-[4-(5-Hydroxy-pyridin-3-yl)-cyclohexyl]-azetidin-3-ylcarbamoyl}-methyl)-3-trifluoromethyl-benzamide] | 260 nM
17 | Cc1ccc(O)c(C2CCC(N3CC(NC(=O)CNC(=O)c4cccc(C(F)(F)F)c4)C3)CC2)n1 (stereo not drawn) [Example 6, N-({1-[4-(3-Hydroxy-6-methyl-pyridin-2-yl)-cyclohexyl]-azetidin-3-ylcarbamoyl}-methyl)-3-trifluoromethyl-benzamide] | 50 nM

Results, then the molecule that gave them:

Row | IC50 | SMILES
18 | 7 nM | COc1ccc(C2CCC(N3CC(NC(=O)CNC(=O)c4cccc(C(F)(F)F)c4)C3)CC2)cn1 (single isomer, unassigned) [Example 1a, N-({1-[4-(6-Methoxy-pyridin-3-yl)-cyclohexyl]-azetidin-3-ylcarbamoyl}-methyl)-3-trifluoromethyl-benzamide]
19 | 25 nM | Nc1cccc(C2CCC(N3CC(NC(=O)CNC(=O)c4cccc(C(F)(F)F)c4)C3)CC2)n1 (single isomer, unassigned) [Example 22a, N-({1-[4-(6-Amino-pyridin-2-yl)-cyclohexyl]-azetidin-3-ylcarbamoyl}-methyl)-3-trifluoromethyl-benzamide]
20 | 72 nM | CNc1cccc(C2CCC(N3CC(NC(=O)CNC(=O)c4cccc(C(F)(F)F)c4)C3)CC2)n1 (single isomer, unassigned) [Example 23a, N-({1-[4-(6-Methylamino-pyridin-2-yl)-cyclohexyl]-azetidin-3-ylcarbamoyl}-methyl)-3-trifluoromethyl-benzamide]
21 | 2700 nM | Nc1ccncc1C1CCC(N2CC(NC(=O)CNC(=O)c3cccc(C(F)(F)F)c3)C2)CC1 (single isomer, unassigned) [Example 27a, N-({1-[4-(4-Amino-pyridin-3-yl)-cyclohexyl]-azetidin-3-ylcarbamoyl}-methyl)-3-trifluoromethyl-benzamide]
22 | 189 nM | Nc1ccc(C2CCC(N3CC(NC(=O)CNC(=O)c4cccc(C(F)(F)F)c4)C3)CC2)cn1 (single isomer, unassigned) [Example 30a, N-({1-[4-(6-Amino-pyridin-3-yl)-cyclohexyl]-azetidin-3-ylcarbamoyl}-methyl)-3-trifluoromethyl-benzamide]
23 | 150 nM | Nc1ncccc1C1CCC(N2CC(NC(=O)CNC(=O)c3cccc(C(F)(F)F)c3)C2)CC1 (single isomer, unassigned) [Example 31a, N-({1-[4-(2-Amino-pyridin-3-yl)-cyclohexyl]-azetidin-3-ylcarbamoyl}-methyl)-3-trifluoromethyl-benzamide]
24 | 210 nM | COc1ncccc1C1CCC(N2CC(NC(=O)CNC(=O)c3cccc(C(F)(F)F)c3)C2)CC1 (stereo not drawn) [Example 2, N-({1-[4-(2-Methoxy-pyridin-3-yl)-cyclohexyl]-azetidin-3-ylcarbamoyl}-methyl)-3-trifluoromethyl-benzamide]
25 | 24 nM | O=C(CNC(=O)c1cccc(C(F)(F)F)c1)NC1CN(C2CCC(c3ncccc3O)CC2)C1 (stereo not drawn) [Example 3, N-({1-[4-(3-Hydroxy-pyridin-2-yl)-cyclohexyl]-azetidin-3-ylcarbamoyl}-methyl)-3-trifluoromethyl-benzamide]
26 | 13 nM | O=C(CNC(=O)c1cccc(C(F)(F)F)c1)NC1CN(C2CCC(c3ccc(O)cn3)CC2)C1 (stereo not drawn) [Example 4, N-({1-[4-(5-Hydroxy-pyridin-2-yl)-cyclohexyl]-azetidin-3-ylcarbamoyl}-methyl)-3-trifluoromethyl-benzamide hemisuccinate salt]
27 | 32 nM | COc1cc(C2CCC(N3CC(NC(=O)CNC(=O)c4cccc(C(F)(F)F)c4)C3)CC2)ccn1 (stereo not drawn) [Example 7, N-({1-[4-(2-Methoxy-pyridin-4-yl)-cyclohexyl]-azetidin-3-ylcarbamoyl}-methyl)-3-trifluoromethyl-benzamide]
